Test results published in paper PMC6422671 (British Journal of Clinical Pharmacology, 2019).

Assay: Vital signs; data mean (standard deviation)
Format: in vivo, healthy men
From the text: Data are mean (standard deviation)

Question: With C[C@@H](N)c1cc(Cl)ccc1Cn1c(=S)[nH]c(=O)c2[nH]ccc21 [AZD4831] as the molecule, how does the DBP (5 mg fasted, 0.5 h) read?
Answer: 71 (7) mmHg

Question: And the Pulse (5 mg fasted, 0.5 h)?
Answer: 61 (4) bpm

Question: What about the SBP (5 mg fasted, 0.5 h) of the same molecule?
Answer: 116 (10) mmHg

Question: And the DBP (5 mg fasted, 1 h)?
Answer: 71 (7) mmHg

Question: And the Pulse (5 mg fasted, 1 h)?
Answer: 61 (5) bpm

Question: What about the SBP (5 mg fasted, 1 h) of the same molecule?
Answer: 114 (8) mmHg

Question: And the DBP (5 mg fasted, 2 h)?
Answer: 71 (5) mmHg

Question: And the Pulse (5 mg fasted, 2 h)?
Answer: 60 (4) bpm

Question: What about the SBP (5 mg fasted, 2 h) of the same molecule?
Answer: 119 (10) mmHg

Question: And the DBP (5 mg fasted, 3 h)?
Answer: 72 (9) mmHg

Question: And the Pulse (5 mg fasted, 3 h)?
Answer: 60 (4) bpm

Question: What about the SBP (5 mg fasted, 3 h) of the same molecule?
Answer: 119 (12) mmHg

Question: What about the DBP (5 mg fasted, 4 h) of the same molecule?
Answer: 71 (7) mmHg

Question: What about the Pulse (5 mg fasted, 4 h) of the same molecule?
Answer: 64 (5) bpm

Question: What about the SBP (5 mg fasted, 4 h) of the same molecule?
Answer: 118 (9) mmHg

Question: What about the DBP (5 mg fasted, 6 h) of the same molecule?
Answer: 69 (8) mmHg

Question: What about the Pulse (5 mg fasted, 6 h) of the same molecule?
Answer: 68 (5) bpm

Question: What about the SBP (5 mg fasted, 6 h) of the same molecule?
Answer: 118 (11) mmHg

Question: And the DBP (5 mg fasted, 8 h)?
Answer: 68 (5) mmHg

Question: What about the Pulse (5 mg fasted, 8 h) of the same molecule?
Answer: 62 (5) bpm

Question: And the SBP (5 mg fasted, 8 h)?
Answer: 117 (9) mmHg

Question: And the DBP (5 mg fasted, 12 h)?
Answer: 69 (9) mmHg

Question: And the Pulse (5 mg fasted, 12 h)?
Answer: 68 (4) bpm

Question: And the SBP (5 mg fasted, 12 h)?
Answer: 118 (13) mmHg

Question: What about the DBP (5 mg fasted, 24 h) of the same molecule?
Answer: 69 (5) mmHg

Question: What about the Pulse (5 mg fasted, 24 h) of the same molecule?
Answer: 59 (5) bpm

Question: What about the SBP (5 mg fasted, 24 h) of the same molecule?
Answer: 112 (5) mmHg

Question: And the DBP (5 mg fasted, 36 h)?
Answer: 69 (4) mmHg

Question: What about the Pulse (5 mg fasted, 36 h) of the same molecule?
Answer: 68 (5) bpm

Question: What about the SBP (5 mg fasted, 36 h) of the same molecule?
Answer: 119 (6) mmHg

Question: And the DBP (5 mg fasted, 48 h)?
Answer: 70 (4) mmHg

Question: And the Pulse (5 mg fasted, 48 h)?
Answer: 64 (9) bpm

Question: What about the SBP (5 mg fasted, 48 h) of the same molecule?
Answer: 116 (8) mmHg

Question: And the DBP (15 mg fasted, 0.5 h)?
Answer: 68 (4) mmHg

Question: What about the Pulse (15 mg fasted, 0.5 h) of the same molecule?
Answer: 58 (9) bpm

Question: And the SBP (15 mg fasted, 0.5 h)?
Answer: 115 (7) mmHg

Question: What about the DBP (15 mg fasted, 1 h) of the same molecule?
Answer: 67 (4) mmHg

Question: And the Pulse (15 mg fasted, 1 h)?
Answer: 61 (9) bpm

Question: And the SBP (15 mg fasted, 1 h)?
Answer: 115 (8) mmHg

Question: What about the DBP (15 mg fasted, 2 h) of the same molecule?
Answer: 65 (2) mmHg

Question: And the Pulse (15 mg fasted, 2 h)?
Answer: 58 (6) bpm

Question: And the SBP (15 mg fasted, 2 h)?
Answer: 113 (4) mmHg

Question: What about the DBP (15 mg fasted, 3 h) of the same molecule?
Answer: 65 (3) mmHg

Question: What about the Pulse (15 mg fasted, 3 h) of the same molecule?
Answer: 58 (4) bpm

Question: And the SBP (15 mg fasted, 3 h)?
Answer: 112 (5) mmHg

Question: And the DBP (15 mg fasted, 4 h)?
Answer: 66 (6) mmHg

Question: And the Pulse (15 mg fasted, 4 h)?
Answer: 59 (8) bpm

Question: What about the SBP (15 mg fasted, 4 h) of the same molecule?
Answer: 113 (5) mmHg

Question: What about the DBP (15 mg fasted, 6 h) of the same molecule?
Answer: 65 (2) mmHg

Question: And the Pulse (15 mg fasted, 6 h)?
Answer: 68 (9) bpm

Question: What about the SBP (15 mg fasted, 6 h) of the same molecule?
Answer: 119 (9) mmHg

Question: What about the DBP (15 mg fasted, 8 h) of the same molecule?
Answer: 64 (2) mmHg

Question: And the Pulse (15 mg fasted, 8 h)?
Answer: 63 (11) bpm

Question: What about the SBP (15 mg fasted, 8 h) of the same molecule?
Answer: 116 (7) mmHg

Question: And the DBP (15 mg fasted, 12 h)?
Answer: 64 (4) mmHg

Question: What about the Pulse (15 mg fasted, 12 h) of the same molecule?
Answer: 69 (10) bpm

Question: And the SBP (15 mg fasted, 12 h)?
Answer: 119 (5) mmHg

Question: And the DBP (15 mg fasted, 24 h)?
Answer: 67 (2) mmHg

Question: And the Pulse (15 mg fasted, 24 h)?
Answer: 62 (7) bpm

Question: And the SBP (15 mg fasted, 24 h)?
Answer: 113 (4) mmHg

Question: And the DBP (15 mg fasted, 36 h)?
Answer: 63 (4) mmHg

Question: What about the Pulse (15 mg fasted, 36 h) of the same molecule?
Answer: 73 (9) bpm

Question: And the SBP (15 mg fasted, 36 h)?
Answer: 118 (5) mmHg

Question: And the DBP (15 mg fasted, 48 h)?
Answer: 66 (5) mmHg

Question: What about the Pulse (15 mg fasted, 48 h) of the same molecule?
Answer: 65 (12) bpm

Question: And the SBP (15 mg fasted, 48 h)?
Answer: 114 (7) mmHg

Question: And the DBP (45 mg fasted, 0.5 h)?
Answer: 73 (14) mmHg

Question: What about the Pulse (45 mg fasted, 0.5 h) of the same molecule?
Answer: 59 (11) bpm

Question: And the SBP (45 mg fasted, 0.5 h)?
Answer: 122 (13) mmHg

Question: And the DBP (45 mg fasted, 1 h)?
Answer: 72 (14) mmHg

Question: What about the Pulse (45 mg fasted, 1 h) of the same molecule?
Answer: 57 (10) bpm

Question: And the SBP (45 mg fasted, 1 h)?
Answer: 125 (12) mmHg

Question: And the DBP (45 mg fasted, 2 h)?
Answer: 69 (15) mmHg

Question: And the Pulse (45 mg fasted, 2 h)?
Answer: 59 (10) bpm

Question: What about the SBP (45 mg fasted, 2 h) of the same molecule?
Answer: 122 (17) mmHg

Question: And the DBP (45 mg fasted, 3 h)?
Answer: 70 (13) mmHg

Question: What about the Pulse (45 mg fasted, 3 h) of the same molecule?
Answer: 60 (8) bpm

Question: What about the SBP (45 mg fasted, 3 h) of the same molecule?
Answer: 120 (14) mmHg

Question: What about the DBP (45 mg fasted, 4 h) of the same molecule?
Answer: 69 (16) mmHg

Question: What about the Pulse (45 mg fasted, 4 h) of the same molecule?
Answer: 58 (8) bpm

Question: And the SBP (45 mg fasted, 4 h)?
Answer: 121 (13) mmHg

Question: And the DBP (45 mg fasted, 6 h)?
Answer: 66 (7) mmHg

Question: What about the Pulse (45 mg fasted, 6 h) of the same molecule?
Answer: 61 (10) bpm

Question: And the SBP (45 mg fasted, 6 h)?
Answer: 120 (9) mmHg

Question: And the DBP (45 mg fasted, 8 h)?
Answer: 68 (15) mmHg

Question: And the Pulse (45 mg fasted, 8 h)?
Answer: 59 (11) bpm

Question: And the SBP (45 mg fasted, 8 h)?
Answer: 116 (11) mmHg

Question: What about the DBP (45 mg fasted, 12 h) of the same molecule?
Answer: 68 (11) mmHg

Question: What about the Pulse (45 mg fasted, 12 h) of the same molecule?
Answer: 63 (12) bpm

Question: And the SBP (45 mg fasted, 12 h)?
Answer: 124 (12) mmHg

Question: And the DBP (45 mg fasted, 24 h)?
Answer: 71 (11) mmHg

Question: And the Pulse (45 mg fasted, 24 h)?
Answer: 58 (11) bpm

Question: And the SBP (45 mg fasted, 24 h)?
Answer: 118 (9) mmHg

Question: And the DBP (45 mg fasted, 36 h)?
Answer: 66 (14) mmHg

Question: What about the Pulse (45 mg fasted, 36 h) of the same molecule?
Answer: 66 (11) bpm

Question: What about the SBP (45 mg fasted, 36 h) of the same molecule?
Answer: 121 (9) mmHg

Question: What about the DBP (45 mg fasted, 48 h) of the same molecule?
Answer: 69 (11) mmHg

Question: What about the Pulse (45 mg fasted, 48 h) of the same molecule?
Answer: 64 (13) bpm

Question: And the SBP (45 mg fasted, 48 h)?
Answer: 120 (10) mmHg
